Assay results taken from the NIST ThermoML archive (doi:10.1016/j.fluid.2014.12.001).
Numbers after ± are expanded uncertainties.

How the values were obtained:
[1] = Molar enthalpy of transition or fusion; settings: Crystal; DSC
[2] = Crystal; visual observation

| SMILES | Molar enthalpy of transition or fusion [1] [kJ/mol] | Normal melting temperature [2] [°C] |
| --- | --- | --- |
| Oc1cccc2ccccc12 [1-naphthol] | 21.8 ± 0.99 | 95.10 ± 1.1 |
| Nc1ccccc1[N+](=O)[O-] [2-nitroaniline] | 19.2 ± 0.88 | 69.7 ± 1.1 |
